Assay results published in patent US6737383B1, “Herbicidal oxadiazolidines” (priority 1999, dated 2004).

Key:
purple nutsedge = experiment: Test B pre/postemergence purple nutsedge; format: in vivo, Cyperus rotundus
How it was run: (§1)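 Test chemicals in a non-phytotoxic solvent mixture with surfactant were sprayed preemergence onto planted seeds and postemergence onto plants 2 to 18 cm tall (1- to 4-leaf stage). After twelve to sixteen days in a greenhouse, injury was visually rated against untreated controls from 0 (no effect) to 10 (complete control).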

bedstraw = experiment: Test B pre/postemergence bedstraw; format: in vivo, Galium aparine
How it was run: as §1

smallflower flatsedge = experiment: Test B flood test smallflower flatsedge; format: in vivo, Cyperus difformis
How it was run: (§2)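 Plants were grown to the 2-leaf stage before treatment with test chemical, then held in a greenhouse for twelve to sixteen days. Injury was visually rated against untreated controls on a 0–10 scale, where 0 is no effect and 10 is complete control.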

crabgrass = experiment: Test B pre/postemergence crabgrass; format: in vivo, Digitaria sanguinalis
How it was run: as §1

wild oat = experiment: Test B pre/postemergence wild oat; format: in vivo, Avena fatua
How it was run: as §1

cocklebur = experiment: Test B pre/postemergence cocklebur; format: in vivo, Xanthium strumarium
How it was run: as §1

sugar beet = experiment: Test B pre/postemergence sugar beet; format: in vivo, Beta vulgaris
How it was run: as §1

morningglory = experiment: Test B pre/postemergence morningglory; format: in vivo, Ipomoea hederacea
How it was run: as §1

blackgrass = experiment: Test B pre/postemergence blackgrass; format: in vivo, Alopecurus myosuroides
How it was run: as §1

pigweed = experiment: Test B pre/postemergence pigweed; format: in vivo, Amaranthus retroflexus
How it was run: as §1

surinam grass = experiment: Test B pre/postemergence surinam grass; format: in vivo, Brachiaria decumbens
How it was run: as §1

duck salad = experiment: Test B flood test duck salad; format: in vivo, Heteranthera limosa
How it was run: as §2

rape = experiment: Test B pre/postemergence rape; format: in vivo, Brassica napus
How it was run: as §1

velvetleaf = experiment: Test B pre/postemergence velvetleaf; format: in vivo, Abutilon theophrasti
How it was run: as §1

corn = experiment: Test B pre/postemergence corn; format: in vivo, Zea mays
How it was run: as §1

wheat = experiment: Test B pre/postemergence wheat; format: in vivo, Triticum aestivum
How it was run: as §1

[1] = Preemergence, Rate 62 g/ha, scale of 0 to 10 where 0 is no effect and 10 is complete control
[2] = Preemergence, Rate 125 g/ha, 0 is no effect, 10 is complete control
[3] = Preemergence, Rate 250 g/ha, scale 0 to 10, 0 is no effect, 10 is complete control
[4] = Preemergence, Rate 500 g/ha, scale 0 to 10 (0 no effect, 10 complete control)
[5] = Rate 62 g/ha, Postemergence, scale of 0 to 10 where 0 is no effect and 10 is complete control
[6] = Rate 125 g/ha, Postemergence, scale 0 to 10
[7] = Rate 500 g/ha, Postemergence, scale 0 to 10
[8] = Rate 62 g/ha, headed Pre-emergence (flood test species), scale 0 to 10 (0 no effect, 10 complete control)
[9] = Rate 125 g/ha, Pre-emergence, flood test species, scale 0 to 10 where 0 is no effect and 10 is complete control
[10] = Rate 250 g/ha, Pre-emergence, flood-test species, scale 0 to 10, 0 is no effect, 10 is complete control

In the case of CCN(Cc1ccncc1)C(=O)n1oc(=O)n(C(C)C)c1=O [Compound 189], the “Nutsedge plant response rating” value (purple nutsedge; [1]) is reported as 0, the “Nutsedge plant response rating (0 to 10 scale)” value (purple nutsedge; [2]) is reported as 0 and the “Nutsedge plant response rating” value (purple nutsedge; [3]) is reported as 0. For the same molecule, the “Nutsedge plant response rating” value (purple nutsedge; [4]) was 0, the “Nutsedge plant response rating” value (purple nutsedge; [5]) was 0 and the “Nutsedge plant response rating” value (purple nutsedge; [6]) was 0. For the same molecule, the “Plant response rating (0 to 10; 0 is no effect, 10 is complete control), Nutsedge” value (purple nutsedge; Rate 250 g/ha, Postemergence) was 0, the “Nutsedge plant response rating” value (purple nutsedge; [7]) was 0 and the “Bedstraw plant response rating” value (bedstraw; [1]) was 0. For the same molecule, the “Bedstraw plant response rating (0 to 10 scale)” value (bedstraw; [2]) was 0, the “Bedstraw plant response rating” value (bedstraw; [3]) was 0 and the “Bedstraw plant response rating” value (bedstraw; [4]) was 0. For the same molecule, the “Bedstraw plant response rating” value (bedstraw; [5]) was 0, the “Bedstraw plant response rating” value (bedstraw; [6]) was 0 and the “Plant response rating (0 to 10; 0 is no effect, 10 is complete control), Bedstraw” value (bedstraw; Rate 250 g/ha, Postemergence) was 0. For the same molecule, the “Bedstraw plant response rating” value (bedstraw; [7]) was 0, the “S. Flatsedge plant response rating” value (smallflower flatsedge; [8]) was 0 and the “S. Flatsedge plant response rating” value (smallflower flatsedge; [9]) was 0. The “S. Flatsedge plant response rating” value (smallflower flatsedge; [10]) was 0, the “S. Flatsedge plant response rating” value (smallflower flatsedge; Rate 500 g/ha, Pre-emergence, flood test species, scale 0 to 10 (0 no effect, 10 complete control)) was 0 and the “Crabgrass plant response rating” value (crabgrass; [1]) was 0. For the same molecule, the “Crabgrass plant response rating (0 to 10 scale)” value (crabgrass; [2]) was 0, the “Crabgrass plant response rating” value (crabgrass; [3]) was 0 and the “Crabgrass plant response rating” value (crabgrass; [4]) was 3. The “Crabgrass plant response rating” value (crabgrass; [5]) was 0, the “Crabgrass plant response rating” value (crabgrass; [6]) was 0 and the “Plant response rating (0 to 10; 0 is no effect, 10 is complete control), Crabgrass” value (crabgrass; Rate 250 g/ha, Postemergence) was 0. The “Crabgrass plant response rating” value (crabgrass; [7]) was 0, the “Wild oats plant response rating” value (wild oat; [1]) was 0 and the “Wild oats plant response rating” value (wild oat; [3]) was 3. For the same molecule, the “Wild oats plant response rating” value (wild oat; [4]) was 3, the “Wild oats plant response rating” value (wild oat; [5]) was 0 and the “Wild oats plant response rating” value (wild oat; [6]) was 0. For the same molecule, the “Plant response rating (0 to 10; 0 is no effect, 10 is complete control), Wild oats” value (wild oat; Rate 250 g/ha, Postemergence) was 0, the “Cocklebur plant response rating (0 to 10 scale)” value (cocklebur; [2]) was 0 and the “Cocklebur plant response rating” value (cocklebur; [3]) was 0. For the same molecule, the “Cocklebur plant response rating” value (cocklebur; [4]) was 0, the “Cocklebur plant response rating” value (cocklebur; [5]) was 0 and the “Cocklebur plant response rating” value (cocklebur; [6]) was 0. For the same molecule, the “Plant response rating (0 to 10; 0 is no effect, 10 is complete control), Cocklebur” value (cocklebur; Rate 250 g/ha, Postemergence) was 0, the “Cocklebur plant response rating” value (cocklebur; [7]) was 0 and the “Sugarbeets plant response rating” value (sugar beet; [1]) was 0. The “Sugarbeets plant response rating (0 to 10 scale)” value (sugar beet; [2]) was 0, the “Sugarbeets plant response rating” value (sugar beet; [3]) was 0 and the “Sugarbeets plant response rating” value (sugar beet; [4]) was 0. For the same molecule, the “Sugarbeets plant response rating” value (sugar beet; [5]) was 0, the “Sugarbeets plant response rating” value (sugar beet; [6]) was 0 and the “Plant response rating (0 to 10; 0 is no effect, 10 is complete control), Sugarbeets” value (sugar beet; Rate 250 g/ha, Postemergence) was 0. For the same molecule, the “Sugarbeets plant response rating” value (sugar beet; [7]) was 0, the “Morningglory plant response rating” value (morningglory; [1]) was 0 and the “Morningglory plant response rating (0 to 10 scale)” value (morningglory; [2]) was 0. The “Morningglory plant response rating” value (morningglory; [3]) was 0, the “Morningglory plant response rating” value (morningglory; [4]) was 0 and the “Morningglory plant response rating” value (morningglory; [5]) was 0. The “Morningglory plant response rating” value (morningglory; [6]) was 0, the “Plant response rating (0 to 10; 0 is no effect, 10 is complete control), Morningglory” value (morningglory; Rate 250 g/ha, Postemergence) was 0 and the “Morningglory plant response rating” value (morningglory; [7]) was 0. The “Blackgrass plant response rating” value (blackgrass; [1]) was 1, the “Blackgrass plant response rating (0 to 10 scale)” value (blackgrass; [2]) was 4 and the “Blackgrass plant response rating” value (blackgrass; [3]) was 4. For the same molecule, the “Blackgrass plant response rating” value (blackgrass; [4]) was 7, the “Blackgrass plant response rating” value (blackgrass; [5]) was 0 and the “Blackgrass plant response rating” value (blackgrass; [6]) was 0. For the same molecule, the “Plant response rating (0 to 10; 0 is no effect, 10 is complete control), Blackgrass” value (blackgrass; Rate 250 g/ha, Postemergence) was 0, the “Blackgrass plant response rating” value (blackgrass; [7]) was 0 and the “Redroot pigweed plant response rating” value (pigweed; [1]) was 0. The “Redroot pigweed plant response rating (0 to 10 scale)” value (pigweed; [2]) was 0, the “Redroot pigweed plant response rating” value (pigweed; [3]) was 0 and the “Redroot pigweed plant response rating” value (pigweed; [4]) was 0. For the same molecule, the “Redroot pigweed plant response rating” value (pigweed; [5]) was 0, the “Redroot pigweed plant response rating” value (pigweed; [6]) was 0 and the “Plant response rating (0 to 10; 0 is no effect, 10 is complete control), Redroot pigweed” value (pigweed; Rate 250 g/ha, Postemergence) was 0. For the same molecule, the “Redroot pigweed plant response rating” value (pigweed; [7]) was 0, the “B. signalgrass plant response rating” value (surinam grass; [1]) was 3 and the “B. signalgrass plant response rating” value (surinam grass; [3]) was 3. The “B. signalgrass plant response rating” value (surinam grass; [4]) was 6, the “B. signalgrass plant response rating” value (surinam grass; [5]) was 0 and the “B. signalgrass plant response rating” value (surinam grass; Rate 125 g/ha, Postemergence, scale 0 (no effect) to 10 (complete control)) was 0. For the same molecule, the “Plant response rating, B. signalgrass” value (surinam grass; Rate 250 g/ha, Postemergence, scale 0 to 10, 0 is no effect, 10 is complete control) was 0, the “B. signalgrass plant response rating” value (surinam grass; Rate 500 g/ha, Postemergence, scale 0 to 10, 0 no effect, 10 complete control) was 0 and the “Ducksalad plant response rating” value (duck salad; [8]) was 0. For the same molecule, the “Ducksalad plant response rating” value (duck salad; [9]) was 0, the “Ducksalad plant response rating” value (duck salad; [10]) was 0 and the “Plant response rating, Ducksalad” value (duck salad; Rate 500 g/ha, headed Pre-emergence (flood test species), scale 0 to 10 (0 no effect, 10 complete control)) was 0. For the same molecule, the “Rape plant response rating” value (rape; [1]) was 0, the “Rape plant response rating (0 to 10 scale)” value (rape; [2]) was 0 and the “Rape plant response rating” value (rape; [3]) was 0. For the same molecule, the “Rape plant response rating” value (rape; [4]) was 0, the “Rape plant response rating” value (rape; [5]) was 0 and the “Rape plant response rating” value (rape; [6]) was 0. For the same molecule, the “Plant response rating (0 to 10; 0 is no effect, 10 is complete control), Rape” value (rape; Rate 250 g/ha, Postemergence) was 0, the “Rape plant response rating” value (rape; [7]) was 0 and the “Velvetleaf plant response rating” value (velvetleaf; [1]) was 0. For the same molecule, the “Velvetleaf plant response rating” value (velvetleaf; [3]) was 0, the “Velvetleaf plant response rating” value (velvetleaf; [4]) was 0 and the “Velvetleaf plant response rating” value (velvetleaf; [5]) was 0. The “Velvetleaf plant response rating” value (velvetleaf; [6]) was 0, the “Plant response rating (0 to 10; 0 is no effect, 10 is complete control), Velvetleaf” value (velvetleaf; Rate 250 g/ha, Postemergence) was 0 and the “Corn plant response rating” value (corn; [1]) was 0. The “Corn plant response rating (0 to 10 scale)” value (corn; [2]) was 0, the “Corn plant response rating” value (corn; [3]) was 0 and the “Corn plant response rating” value (corn; [4]) was 0. The “Corn plant response rating” value (corn; [5]) was 0, the “Corn plant response rating” value (corn; [6]) was 0 and the “Plant response rating (0 to 10; 0 is no effect, 10 is complete control), Corn” value (corn; Rate 250 g/ha, Postemergence) was 0. The “Corn plant response rating” value (corn; [7]) was 0, the “Wheat plant response rating” value (wheat; [1]) was 0 and the “Wheat plant response rating” value (wheat; [3]) was 0. For the same molecule, the “Wheat plant response rating” value (wheat; [4]) was 2, the “Wheat plant response rating” value (wheat; [5]) was 0 and the “Wheat plant response rating” value (wheat; [6]) was 0. The “Plant response rating (0 to 10; 0 is no effect, 10 is complete control), Wheat” value (wheat; Rate 250 g/ha, Postemergence) was 0.
